Data: patent publication US20230190924A1, “ANTIGEN OF ALLERGY AND EPITOPE THEREOF” (HOYU CO., LTD., priority 2017, published 2023)

Tested on: IgE antibodies from patients
Assay: Epitope mapping (2) overlapping (10-amino-acid peptides) and (3) alanine scanning on peptide arrays
Assay type: binding, human
Details: for binding to IgE antibodies from patients, sequence comprising a region amino-terminally adjacent to the epitope / binding to IgE antibodies from patients, sequence comprising a region carboxy-terminally adjacent to the epitope: overlapping peptides with flanking sequence; for region within the epitope important for binding to IgE antibodies from patients: procedures (B) overlapping and (C) alanine scanning
Method: On the basis of the sequences (SEQ ID NOs: 272-295 for vitellogenin-2 precursor, SEQ ID NOs: 296-303 for vitellogenin-3, SEQ ID NOs: 304-311 for apolipoprotein B precursor, and SEQ ID NOs: 312-318 for vitellogenin-1 or lipovitellin-1) of the peptides bound to an IgE antibody in serum in a patient-specific manner as described above in (A), a library of overlapping peptide fragments (length: 10 amino acids) was prepared using the sequences of the peptides and sequences in which sequences were added so as to flank each peptide in the amino acid sequences of allergen components (amino acid sequences of SEQ ID NO: 59, 106 or 262 for vitellogenin-2 precursor, SEQ ID NO: 2, 13 or 47 for vitellogenin-3, SEQ ID NO: 152, 237 or 251 for apolipoprotein B, and SEQ ID NO: 18 for vitellogenin-1 or lipovitellin-1) comprising the sequences of the peptide to carry out epitope mapping.
The peptides to be synthesized were shifted by one amino acid.
The library was prepared by the same procedure as described above in (A), and the presence or absence of binding of an IgE antibody present in the serum of a patient and a non-egg-allergic subject to each peptide fragment was measured by the same technique as described above. Amino acids at positions where the binding activity against IgE antibodies from patients were lost or decreased in the peptides shifted by one amino acid while binding activity against IgE antibodies from non-egg-allergic subjects arose were confirmed as amino acids adversely affecting the specificity of binding to IgE antibodies.
Chemiluminescence intensity in images obtained by measurement was converted into a numeric value in the same manner as in (A) using ImageQuant TL (GE Healthcare). Numeric values determined from images obtained as a result of using only anti-human IgE antibody-HRP antibody without carrying out the procedures (2) and (3) described above in the subsection titled (3) Spotting of cellulose-bound peptide solution were […] numeric values determined from images obtained from results about the serum of 6 patients. It was determined that a peptide having the resulting value larger than 0 had no binding activity against IgE antibodies when having less than 20% of values obtained using the sequences (amino acid sequences of SEQ ID NO: 59, 106 or 262 for vitellogenin-2, SEQ ID NO: 2, 13 or 47 for vitellogenin-3, SEQ ID NO: 152, 237 or 251 for apolipoprotein B, and SEQ ID NO: 18 for vitellogenin-1 or lipovitellin-1) serving as the basis of overlapping, had binding activity, albeit poor, against IgE antibodies when having 20% or more and less than 50% thereof, had binding activity, albeit somewhat poor, against IgE antibodies when having 50% or more and less than 70% thereof, had almost equivalent binding activity against IgE antibodies when having 70% or more and less than 90% thereof, and had equivalent or good binding activity against IgE antibodies and thus had remaining binding activity against IgE antibodies when having 90% or more thereof.
From the amino acid sequences identified above in (A), a library of peptide fragments in which N-terminal amino acids were substituted one by one by alanine according to a technique called alanine scanning (Non Patent Literature 1) was prepared by the same technique as described above. The presence or absence of binding of an IgE antibody present in the serum of a patient and a non-egg-allergic subject to each peptide fragment was measured by the same technique as described above. Amino acids at positions where the binding activity against IgE antibodies from patients were lost or decreased by the substitution by alanine while binding activity against IgE antibodies from non-egg-allergic subjects arose were confirmed as amino acids important for exertion of original antigenicity, or amino acids influencing exertion of original antigenicity.

Substance | region within the epitope important for binding to IgE antibodies from patients | other results
SEQ ID NO: 480: sequence comprising a region amino-terminally adjacent to epitope 20 (AGEATNLKAI; epitope) | – | binding to IgE antibodies from patients, sequence comprising a region amino-terminally adjacent to the epitope: binding to IgE antibodies from patients
SEQ ID NO: 482: region in epitope 20 (ATNLKAINI; epitope) | important for binding | –
SEQ ID NO: 483: region in epitope 20 (ATNLKAINIK; epitope) | important for binding | –
SEQ ID NO: 486: region in epitope 20 (KAINIKIGS; epitope) | important for binding | –
SEQ ID NO: 487: sequence comprising a region carboxy-terminally adjacent to epitope 20 (NIKIGSHEI; epitope) | – | binding to IgE antibodies from patients, sequence comprising a region carboxy-terminally adjacent to the epitope: binding to IgE antibodies from patients
SEQ ID NO: 491: region in epitope 21 (AAPGHG; epitope) | important for binding | –
SEQ ID NO: 492: sequence comprising a region amino-terminally adjacent to epitope 21 (LAAPGHG; epitope) | – | binding to IgE antibodies from patients, sequence comprising a region amino-terminally adjacent to the epitope: binding to IgE antibodies from patients
SEQ ID NO: 494: region in epitope 21 (DKLYFD; epitope) | important for binding | –
SEQ ID NO: 495: sequence comprising a region carboxy-terminally adjacent to epitope 21 (YFDGKTITIQ; epitope) | – | binding to IgE antibodies from patients, sequence comprising a region carboxy-terminally adjacent to the epitope: binding to IgE antibodies from patients
SEQ ID NO: 497: sequence comprising a region amino-terminally adjacent to epitope 21 (GFALAAPGHG; epitope) | – | binding to IgE antibodies from patients, sequence comprising a region amino-terminally adjacent to the epitope: binding to IgE antibodies from patients
SEQ ID NO: 498: sequence comprising a region amino-terminally adjacent to epitope 21 (ALAAPGHGID; epitope) | – | binding to IgE antibodies from patients, sequence comprising a region amino-terminally adjacent to the epitope: binding to IgE antibodies from patients
SEQ ID NO: 500: region in epitope 21 (DKLYFDG; epitope) | important for binding | –
SEQ ID NO: 503: sequence comprising a region amino-terminally adjacent to epitope 21 (GFALAAPGHG; epitope) | – | binding to IgE antibodies from patients, sequence comprising a region amino-terminally adjacent to the epitope: binding to IgE antibodies from patients
SEQ ID NO: 505: region in epitope 21 (AAPGHGID; epitope) | important for binding | –
SEQ ID NO: 507: region in epitope 21 (PGHGIDKLYF; epitope) | important for binding | –
SEQ ID NO: 509: region in epitope 21 (DKLYFDGKT; epitope) | important for binding | –
SEQ ID NO: 512: region in epitope 22 (MPNGYLAKNA; epitope) | important for binding | –
SEQ ID NO: 515: sequence comprising a region carboxy-terminally adjacent to epitope 22 (GYLAKNAVSF; epitope) | – | binding to IgE antibodies from patients, sequence comprising a region carboxy-terminally adjacent to the epitope: binding to IgE antibodies from patients
